Measured values: US10548894B2, “Combination therapy” (Array BioPharma Inc., priority 2013, dated 2020)
Like-named read-outs stand apart in the source and are kept apart here.

Tests used:
Test in all cases: CellTiter-Glo proliferation assay 72 hrs, with or without FGF2
Format in all cases: cell-based
SW1417 = conditions: Homo sapiens
Protocol: (§1) All cell lines were purchased from ATTC (SK-MEL-5, SK-MEL-24, UACC-62, COLO 741, COLO-800, WM-266-4, Colo205, LS411N, SW 1417), ECACC (MDST8), DSMZ (CL-34) and NCI (LOX IMVI). […] Cell lines were cultured in 37° C. and 5% CO2 incubator and expanded in T-75 flasks. In all cases cells were thawed from frozen stocks, expanded through passage using 1:3 dilutions, counted and assessed for viability using a ViCell counter (Beckman-Coulter), prior to plating in 96-well or 6-well plates. To split and expand cell lines, cells were dislodged from flasks using 0.25% Trypsin-EDTA (GIBCO, Catalog number 25200). All cell lines were determined to be free of mycoplasma contamination as determined by a PCR detection methodology performed at Idexx Radii (Columbia, Mo., USA) and correctly identified by detection of a panel of SNPs.
(§2) The Compound of Formula (I) and Compound H dissolved in 100% DMSO (Cellgro, catalog number 25-290-CQC) at concentrations of 10 mM and stored at −20° C. until use. Compounds were arrayed in 2 ml deep 96-well plates (Greiner bio-one, catalog number 780271) serially diluted 3-fold seven times yielding concentration ranges from 22 nM to 16200 nM. Recombinant Human FGF basic was purchased from R&D system (Catalog number 233-FB), and reconstituted at 50 μg/ml in sterile PBS. It was used at a fixed concentration 100 ng/ml in all experiments.
(§3) For CellTiter-Glo™ assays, cells were dispensed into tissue culture treated 96-well plates (Costar, catalog number 3904) with a final volume of 80 μL of medium and at density of 3000 cells per well. 12 to 24 hrs after plating, 20 μL of each compound dilution series were transferred to plates containing the cells, resulting in compound concentration ranges of 2700 nM to 3.7 nM by 3-fold dilutions and a final DMSO concentration of 0.16%. The total volume in each well was […]. Plates were incubated for 72 hrs and the effects of compounds on cell proliferation was determined using the CellTiter-Glo™ Luminescent Cell Viability Assay (CTG, Promega) and a Victor™ X4 plate reader (Perkin Elmer). For real-time growth assays cells were seeded into xCELLigence E-plates (Roche catalogue number 05232368001) at a density of 4000 cells per well in a total of 90 μl of media and 24 hrs after plating, 11 μl of media with or without compound was added to the wells. 2-4 replicate wells were plated for all cell lines and treatment groups with the exception of LGX818+FGF2 treated COLO 741 cells (N=1). Where indicated final concentrations of compounds and growth factor were 1 uM for Compound H, 100 ng/ml for FGF2, and either 100 nM (SK-MEL-5) or 500 nM (COLO 741) for the Compound of Formula (I). Cells were continuously monitored every two hours for seven days with the xCELLigence real-time impedance based cell analyzer. Impedance was measured using the electrodes on the E-plates, with increasing surface area coverage of cells creating greater electrode impedance. […] In all cases cell index values were normalized to a timepoint immediately following the addition of compound.
(§4) To determine whether FGFRs can rescue a subset of BRAFV600E mutant melanoma cell lines treated with the Compound of Formula (I), its anti-proliferative effects were examined in eleven T1799 mutant BRAF cell lines either in the presence or absence of the FGFR-activating ligand FGF2. […] Thus, the presence of FGF2 is able to rescue a set of BRAFV600E melanoma-derived cell lines from the anti-proliferative effects of the B-Raf inhibitor of Formula (I). Furthermore, similar effects are also observed in BRAFV600E mutant cell lines derived from CRC tumors.
(§5) Mutant (mut) and wildtype (wt) status was determined from published data. […] PTEN mut designations represent a summary call based on mutation, gene copy number, and mRNA expression information for the PTEN gene.

COLO 741 = conditions: Homo sapiens
Protocol: as §1, §2, §3, §4, §5

COLO-800 = conditions: Homo sapiens
Protocol: as §1, §2, §3, §4, §5

SK-MEL-24 = conditions: Homo sapiens
Protocol: as §1, §2, §3, §4, §5

SK-MEL-5 = conditions: Homo sapiens
Protocol: as §1, §2, §3, §4, §5

MDST8 = MDST8 (V600K)
Protocol: as §1, §2, §3, §4, §5

COLO 205 = conditions: Homo sapiens
Protocol: as §1, §2, §3, §4, §5

LS411N = conditions: Homo sapiens, LS-411N
Protocol: as §1, §2, §3, §4, §5

UACC-62 = conditions: Homo sapiens
Protocol: as §1, §2, §3, §4, §5

CL-34 = tested on: CL-34
Protocol: as §1, §2, §3, §4, §5

WM-266-4 = conditions: Homo sapiens, WM-266-4 (V600D)
Protocol: as §1, §2, §3, §4, §5

[1] = with 100 ng/ml FGF2, read-out: LGX818 + FGF2 IC50
[2] = without FGF2, read-out: LGX818 IC50

Compound: COC(=O)N[C@@H](C)CNc1nccc(-c2cn(C(C)C)nc2-c2cc(Cl)cc(NS(C)(=O)=O)c2F)n1 [Compound of Formula (I)]
- IC50 (SW1417; SW1417, with 100 ng/ml FGF2, read-out: LGX818 + FGF2 IC50): 0.364 µM
- IC50 (SW1417; SW1417, without FGF2, read-out: LGX818 IC50): 0.165 µM
- IC50 (COLO 741; COLO 741, with 100 ng/ml FGF2, read-out: LGX818 + FGF2 IC50): 2.65 µM
- IC50 (COLO 741; COLO 741, without FGF2, read-out: LGX818 IC50): 0.053 µM
- IC50 (COLO-800; COLO-800, with 100 ng/ml FGF2, read-out: LGX818 + FGF2 IC50): 0.012 µM
- IC50 (COLO-800; COLO-800, without FGF2, read-out: LGX818 IC50): 0.009 µM
- IC50 (SK-MEL-24; SK-MEL-24, with 100 ng/ml FGF2, read-out: LGX818 + FGF2 IC50): 0.369 µM
- IC50 (SK-MEL-24; SK-MEL-24, without FGF2, read-out: LGX818 IC50): 0.47 µM
- IC50 (SK-MEL-5; SK-MEL-5, with 100 ng/ml FGF2, read-out: LGX818 + FGF2 IC50): > 1 µM
- IC50 (SK-MEL-5; SK-MEL-5, without FGF2, read-out: LGX818 IC50): 0.015 µM
- IC50 (MDST8; [1]): ≥ 10 µM
- IC50 (MDST8; [2]): 0.141 µM
- IC50 (COLO 205; Colo 205, with 100 ng/ml FGF2, read-out: LGX818 + FGF2 IC50): 0.005 µM
- IC50 (COLO 205; Colo 205, without FGF2, read-out: LGX818 IC50): 0.004 µM
- IC50 (LS411N; [1]): ≥ 9.23 µM
- IC50 (LS411N; [2]): 0.185 µM
- IC50 (UACC-62; UACC-62, with 100 ng/ml FGF2, read-out: LGX818 + FGF2 IC50): 0.004 µM
- IC50 (UACC-62; UACC-62, without FGF2, read-out: LGX818 IC50): 0.002 µM
- IC50 (CL-34; CL-34, without FGF2, read-out: LGX818 IC50): 0.038 µM
- IC50 (CL-34; read-out: LGX818 + FGF2 IC50): 0.73 µM
- IC50 (WM-266-4; [1]): 0.004 µM
- IC50 (WM-266-4; [2]): 0.003 µM
